Results published in patent US20130096193A1, “CREATINE BETA-ALANINATE: A NOVEL SALT FOR INCREASING ATHLETIC PERFORMANCE” (priority 2009, published 2013).
Read-outs that look alike come from different tables or passages of the source.

Experiments:
[1] = cited from earlier work
[2] = after 10 week supplementation; cited from earlier work

| Molecule | paraesthesia symptoms ([1]; 10 mg per kg body weight, some individuals) | paraesthesia symptoms ([1]; 20 mg per kg bodyweight, majority of individuals) | paraesthesia symptoms ([1]; 40 mg per kg body weight) | ingested amount that causes paraesthesia ([1]; in solution or as powder in gelatin capsules) | duration of paraesthesia ([1]; oral) | time to beginning of paraesthesia after oral administration ([1]; oral) | increase in intramuscular carnosine content, average [2] [%] | additional β-alanine administrable before symptoms of paraesthesia, compared with β-alanine alone (human subjects, oral) | single oral dose administered before the onset of paraesthesia was noted (human subjects, oral, gelatin capsules, single dose) | equivalent β-alanine dose before onset of paraesthesia (salt mass is about 40.45% β-alanine) |
| --- | --- | --- | --- | --- | --- | --- | --- | --- | --- | --- |
| NCCC(=O)O [β-alanine, 3-Aminopropanoic acid] | mild symptoms | significant symptoms | severe symptoms | above 10 mg per kg body weight | up to 1 hour | about 20 minutes | 80.1 | – | – | – |
| creatine β-alaninate | – | – | – | – | – | – | – | roughly 100% | up to 55.00 mg/kg | about 22.25 mg/kg |
